Data published in PMC12481576, “Barbituric Acid Derivatives as Covalent Inhibitors of Leishmania braziliensis Dihydroorotate Dehydrogenase” (Journal of Medicinal Chemistry, 2025).
Values joined by “and” are separate entries in the source; they are usually repeats but may differ in a detail not shown here. Identical values can stand only once. Like-named read-outs stand apart in the source and are kept apart here.

Columns and labels:
[1] = molecular target: LbDHODH (Leishmania braziliensis, UniProt E9AI53); test: biochemical; settings: for IC50: LbDHODH
LbDHODH, sequence (E9AI53 entry or part of it): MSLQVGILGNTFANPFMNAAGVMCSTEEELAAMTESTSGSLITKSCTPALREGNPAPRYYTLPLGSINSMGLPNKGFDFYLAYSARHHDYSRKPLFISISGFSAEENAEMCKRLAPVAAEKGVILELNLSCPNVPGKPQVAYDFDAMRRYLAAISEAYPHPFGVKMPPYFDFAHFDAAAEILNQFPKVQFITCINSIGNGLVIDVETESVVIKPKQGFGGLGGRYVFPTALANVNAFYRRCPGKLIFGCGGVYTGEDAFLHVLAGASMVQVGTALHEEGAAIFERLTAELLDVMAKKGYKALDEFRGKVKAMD
Protocol: To assess the ability of compounds 2a–2i to inhibit LbDHODH via covalent bond formation with Cys^131, we initially screened them at a concentration of 100 μM under two conditions: with and without a 4-h preincubation with the enzyme.
The experiments were performed in a 96-well microplate reader (SpectraMax Plus 384, Molecular Devices, USA), containing the […] of the buffer 60 mM DCIP, 50 mM Tris pH 8.15, 150 mM KCl, 0.1% Triton X-100, 50 μM DHO and 10 μM of LbDHODH at 165 nM. The reaction was monitored every 3 s at 610 nm over a period of 60 s, in triplicate, for the control and each concentration of the inhibitor. All assays were performed without incubation (0h) and with 4-h preincubation of the inhibitor with LbDHODH, using 5% DMSO (v/v) as control. […]. […] The resulting kobs values were plotted as a function of inhibitor concentration, and the data in the initial linear region was fit to determine the slope, which is kinact/KI. All regressions were performed with GraphPad Prism 9.

[2] = molecular target: T1, HsDHODH (Homo sapiens, UniProt Q02127); test: Selectivity assay: HsDHODH single-dose inhibition (DCIP reduction); format: biochemical
T1 construct: made in house
T1 sequence (Q02127 whole entry): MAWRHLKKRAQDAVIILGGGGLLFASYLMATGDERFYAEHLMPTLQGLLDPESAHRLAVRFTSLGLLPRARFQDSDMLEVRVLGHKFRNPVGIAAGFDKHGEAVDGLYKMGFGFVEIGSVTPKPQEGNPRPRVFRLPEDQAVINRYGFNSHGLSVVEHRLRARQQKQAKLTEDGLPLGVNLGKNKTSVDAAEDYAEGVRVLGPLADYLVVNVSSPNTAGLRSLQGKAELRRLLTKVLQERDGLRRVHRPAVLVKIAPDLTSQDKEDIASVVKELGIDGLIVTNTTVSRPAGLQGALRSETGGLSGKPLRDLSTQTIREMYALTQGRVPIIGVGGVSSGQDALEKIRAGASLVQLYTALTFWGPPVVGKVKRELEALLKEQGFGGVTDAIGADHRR
Protocol: […]. This finding highlights the potential of barbituric acid derivatives as selective inhibitors of LbDHODH.
Human DHODH expression and purification were conducted following a protocol previously established in our laboratory. The purification was carried out by affinity chromatography on a Ni-NTA Agarose column (Qiagen[…] Cat. No. 30210). […] The reaction was performed in triplicate, initiated by adding 195 μL of reaction buffer to 5 μL of HsDHODH protein solution for a final concentration of 20 nM enzyme. As a blank, 195 μL of reaction buffer was added to 5 μL of Buffer A. The reaction was monitored at 610 nm every 3 s over 60 s. As a control, 5 μL of enzyme was added to 195 μL of reaction medium without compound. Enzymatic velocity was calculated, and the percentage of relative enzymatic activity was determined relative to the control.

[3] = tested on: Leishmania braziliensis promastigotes; test: Leishmanicidal activity, promastigote growth (SYBR Green, 72 h); format: cell-based, Leishmania (V.) braziliensis (MHOM/BR/1975/M2904); settings: Leishmania braziliensis, L. braziliensis promastigotes, max 200 μM
Protocol: The cultures were adjusted to 4 × 10^6 parasites per mL, and 50 μL of each culture was added on a test plate with 384 wells (Corning, #CLS3658), along with the controls and compounds to be tested. Previously diluted compounds in DMSO were added to plates in decreasing concentrations, with a maximum concentration of 200 μM. Parasites were exposed to a final concentration of DMSO in various dilutes (final = 0.5%), and the culture medium was used as the control for the experiment. […] After adding the lysis buffer, the plates were incubated in the dark for 2 h with gentle shaking. The readings were done using a SpectraMax M3 reader (excitation at 485 nm and emission at 535 nm).

[4] = Cell viability / cytotoxicity assay (PrestoBlue, 72 h); format: cell-based; settings: human; THP-1 cell line, 72 h, max 200 μM; read-out: CC50
Protocol: (§1) THP-1 cells (American Type Cell Collection, #TIB-202) were acquired in 2019 and stored frozen in liquid nitrogen. The cells were then maintained in RPMI 1640 (Thermo Fisher Scientific, #S31800–022) at 37 °C in a 5% CO2 atmosphere and routinely tested for Mycoplasma contamination by PCR using the primers 5′-[…] and 5′-[…]. To test the toxicity of compounds, 5000 cells were added to 96-well plates with a final volume of 80 μL centrifuged at 400g for 2 min and incubated with 150 ng/mL of phorbol myristate acetate (Merck, #P8139) for 48 h. The medium was replaced, and after 24 h, the compounds were added and tested at decreasing concentrations starting from 200 μM (10 μL/well). After 72 h of incubation, 10 μL of PrestoBlue Cell Viability Reagent (Thermo Fisher Scientific, #A13262) was added per well. After adding the reagent, the cells were incubated for 2 h at 37 °C in a 5% CO2 atmosphere, and fluorescence readings were performed using the SpectraMax M3 reader (excitation at 560 nm and emission at 590 nm).

[5] = tested on: THP-1 cells; test: as above; format: cell-based; settings: THP-1 cell line, 72 h, max 200 μM
Protocol: as §1

[6] = for Raw data: analyte peak area, T=0: 0 min; for Raw data: analyte peak area, T=0 / Raw data: analyte peak area, T=5 / Raw data: analyte peak area, T=10 / Raw data: analyte peak area, T=20 / Raw data: analyte peak area, T=30 / Raw data: analyte peak area, T=60: raw LC-MS area; for Raw data: analyte peak area, T=5: 5 min; for Raw data: analyte peak area, T=10: 10 min; for Raw data: analyte peak area, T=20: 20 min; for Raw data: analyte peak area, T=30: 30 min; for Raw data: analyte peak area, T=60: 60 min
[7] = in vitro; settings: liver microsomes; for microsomal CLint at 1 μM / remaining at 5 min, 1 μM: male, CD1, mouse; for remaining at 5 min, 1 μM / remaining at 10 min, 1 µM / remaining at 20 min, 1 µM / remaining at 0.5 h, 1 µM / remaining at 1 h, 1 µM: pH 7.4, % Remaining; for remaining at 5 min, 1 μM: T=5 min; for remaining at 10 min, 1 µM / remaining at 20 min, 1 µM / remaining at 0.5 h, 1 µM / remaining at 1 h, 1 µM: mouse; for remaining at 10 min, 1 µM: T=10 min; for remaining at 20 min, 1 µM: T=20 min; for remaining at 0.5 h, 1 µM: T=30 min, 30 min; for remaining at 1 h, 1 µM: T=60 min, 60 min
[8] = in vitro; settings: mouse, microsomes, pH 7.4, % Remaining, T=60 NCF
[9] = Mouse liver microsome stability in the absence of cofactors (NCF); settings: mouse liver microsomes, 60 min, no cofactor (NCF), raw LC-MS area
[10] = 0 h, pH 8.15, read-out: LbDHODH Activity±SD (%)
[11] = 4 h, pH 8.15, read-out: LbDHODH Activity±SD (%)
[12] = read-out: Single dose (0h) % activity
[13] = read-out: Single dose (4h) % activity
[14] = mouse liver microsomes, replicate 1 (left block)
[15] = mouse liver microsomes, replicate 2 (right block)
[16] = n=1, mouse liver microsomes, 1 µM, n=1
[17] = n=2, mouse liver microsomes, 1 µM, n=2

For `O=C1NC(=O)C(=Cc2ccc(-c3ccccc3)cc2)C(=O)N1` [2f, 5-([1,1′-Biphenyl]-4-ylmethylene)pyrimidine-2,4,6(1H,3H,5H)-trione], the activity at 0.024414 µM [1, 10] was 97 ± 2%, the activity at 0.048828 µM [1, 10] was 93 ± 2% and the activity at 0.0976562 µM [1, 10] was 98 ± 2%. The activity at 0.195312 µM [1, 10] was 97 ± 2%, the activity at 0.390625 µM [1, 10] was 91 ± 2% and the activity at 0.78125 µM [1, 10] was 94 ± 2%. The activity at 1.5625 µM [1, 10] was 100 ± 2%, the activity at 3.125 µM [1, 10] was 94 ± 2% and the activity at 6.25 µM [1, 10] was 96 ± 2%. It also gave an activity at 12.5 µM [1, 10] of 86 ± 2%, an activity at 25 µM [1, 10] of 83 ± 2% and an activity at 50 µM [1, 10] of 71 ± 2%. For the same molecule, the activity at 100 µM [1, 10] was 62 ± 2%, the activity at 200 µM [1, 10] was 43 ± 1% and the activity at 0.024414 µM [1, 11] was 103 ± 3%. It also gave an activity at 0.048828 µM [1, 11] of 104 ± 3%, an activity at 0.0976562 µM [1, 11] of 104 ± 3% and an activity at 0.195312 µM [1, 11] of 95.5 ± 2%. The activity at 0.390625 µM [1, 11] was 95.9 ± 2%, the activity at 0.78125 µM [1, 11] was 85.6 ± 2% and the activity at 1.5625 µM [1, 11] was 83.3 ± 2%. The activity at 3.125 µM [1, 11] was 73.6 ± 2%, the activity at 6.25 µM [1, 11] was 53 ± 1% and the activity at 12.5 µM [1, 11] was 41 ± 1%. The activity at 25 µM [1, 11] was 25.2 ± 0.6%, the activity at 50 µM [1, 11] was 10 ± 0.2% and the activity at 100 µM [1, 11] was 3.8 ± 0.1%. For the same molecule, the activity at 200 µM [1, 11] was 0.95 ± 0.02%, the IC50 ([1]; IC50 0 h, without preincubation) was 160 ± 10 µM and the IC50 ([1]; IC50 4 h, 4-h preincubation) was 7.7 ± 0.3 µM. It also gave an activity at 100 µM [1, 12] of 62 ± 2%, an activity at 100 µM [1, 13] of 3.8 ± 0.1% and an inhibition at 100 µM ([1]; read-out: enzyme inhibition) of 96.2%. It also gave an activity at 100 µM [2, 12] of 103 ± 12%, an activity at 100 µM [2, 13] of 78 ± 8% and an EC50 [3] of 19 ± 14 µM. For the same molecule, the CC50 at 72 h [4] was 12 ± 3 µM and the CC50 [5] was “strong cytotoxicity”.
For `O=C(O)Cc1ccccc1Nc1c(Cl)cccc1Cl` [Diclofenac], the “Calculated T-half (min), Average” value ([6]; mouse liver microsomes (CD1 male), 0.4 mg/ml protein, test conc 1 µM, average of n=1 and n=2) was 59.3 min, the “Calculated T-half (min), n=1” value ([6]; mouse liver microsomes (CD1 male), 0.4 mg/ml protein, test conc 1 µM, replicate n=1) was 62.0 min and 61.99 min and the “Calculated T-half (min), n=2” value ([6]; mouse liver microsomes (CD1 male), 0.4 mg/ml protein, test conc 1 µM, replicate n=2) was 56.6 min and 56.57 min. For the same molecule, the “Raw data: analyte peak area, T=0” value [6, 14] was 17523, the “Raw data: analyte peak area, T=0” value [6, 15] was 19401 and the “Calculated CLint, app (µl/min/mg), n=1” value ([6]; mouse liver microsomes, 0.4 mg/ml protein, 1 µM, replicate n=1) was 27.95 µL/min/mg. The “Calculated CLint, app (µl/min/mg), n=2” value ([6]; mouse liver microsomes, 0.4 mg/ml protein, 1 µM, replicate n=2) was 30.63 µL/min/mg, the “Modified T-half (min), Average” value ([6]; mouse liver microsomes, 0.4 mg/ml, 1 µM, average, limited to T Half range 3.00 - […]) was 59.3 min and the “Raw data: analyte peak area, T=5” value [6, 14] was 17080. For the same molecule, the “Raw data: analyte peak area, T=5” value [6, 15] was 16757, the “Raw data: analyte peak area, T=10” value [6, 14] was 15901 and the “Raw data: analyte peak area, T=10” value [6, 15] was 17016. The “Raw data: analyte peak area, T=20” value [6, 14] was 13027, the “Raw data: analyte peak area, T=20” value [6, 15] was 13336 and the “Raw data: analyte peak area, T=30” value [6, 14] was 11583. For the same molecule, the “Raw data: analyte peak area, T=30” value [6, 15] was 11936, the “Raw data: analyte peak area, T=60” value [6, 14] was 10413 and the “Raw data: analyte peak area, T=60” value [6, 15] was 8808. For the same molecule, the microsomal CLint at 1 μM ([7]; pH 7.4) was 27.9 µL/min/mg, the remaining at 5 min, 1 μM [7, 16] was 94% and the remaining at 5 min, 1 μM [7, 17] was 89.2%. It also gave a microsomal CLint at 1 μM ([7]; pH 7.4, Calculated CLint, app (µl/min/mg), Average, mouse liver microsomes, 0.4 mg/ml protein, 1 µM) of 29.3 µL/min/mg, a microsomal CLint at 1 μM ([7]; pH 7.4, Calculated CLint, app (µl/min/mg), n=1, mouse liver microsomes, 0.4 mg/ml protein, 1 µM, replicate n=1) of 27.9 µL/min/mg and a microsomal CLint at 1 μM ([7]; pH 7.4, Calculated CLint, app (µl/min/mg), n=2, mouse liver microsomes, 0.4 mg/ml protein, 1 µM, replicate n=2) of 30.6 µL/min/mg. The remaining at 10 min, 1 µM [7, 16] was 86.6%, the remaining at 10 min, 1 µM [7, 17] was 87% and the remaining at 20 min, 1 µM [7, 16] was 79.5%. For the same molecule, the remaining at 20 min, 1 µM [7, 17] was 79%, the remaining at 0.5 h, 1 µM [7, 16] was 62% and the remaining at 0.5 h, 1 µM [7, 17] was 63%. It also gave a remaining at 1 h, 1 µM [7, 16] of 52.3%, a remaining at 1 h, 1 µM [7, 17] of 47.8% and a remaining at 1 h, 1 µM ([8]; n=1) of 98.3%. The remaining at 1 h, 1 µM ([8]; n=2) was 88.5%, the “Raw data: analyte peak area, T=60 NCF” value ([9]; replicate 1 (left block)) was 17862 and the “Raw data: analyte peak area, T=60 NCF” value ([9]; replicate 2 (right block)) was 19654.
